Experimental data as given in a melting point compilation (Tetko et al.; mined from patent text by program, amines drawn as free bases though some values may be those of a salt).

Point of comparison: `Nc1nc(N)c2ncn(COCCOC(=O)c3ccccc3)c2n1`, melting point 205 °C. Against it:
- O=C(O)c1ccc(=O)n(CCNC(=O)c2ccncc2)c1 — higher, > 300 °C
- N#CC1(O)COc2ccccc2OC1 — lower, 108 to 110 °C
- CON1CCC2(CC1)C(O)=C(c1c(C)cc(C)cc1C)C(=O)N2OC1CCCO1 (configuration not stated) — lower, 144 to 146 °C
- C=C1CCCN(C(=O)c2ccc(NC(=O)c3ccccc3C)cc2)c2ccccc21 — higher, 216 to 217 °C
- Cn1ncc(/C=C/C(=O)Nc2ccc(CNC(=O)c3ccccc3)cc2)c1-c1ccc(F)cc1 — higher, 250 to 251 °C
- O=c1c2c(Cl)cc(Cl)cc2n(Cc2ccccc2)c(=O)n1Cc1cccc(Br)c1 — lower, 121 to 128 °C
- O=C(OCn1cc(F)c(=O)n(COC(=O)c2ccccc2)c1=O)c1ccccc1 — lower, 178 to 180 °C
- CC(=O)Oc1ccccc1C(=O)Oc1cccc(CO)c1 — lower, 77 to 79 °C
- Fc1ccc(Cn2c(NC3CCN(CCNc4nc(-c5ccccc5)cs4)CC3)nc3ccccc32)cc1 — lower, 176 °C
- C#CC(CC(=O)OC(C)(C)C)N=Cc1ccccc1 (configuration not stated) — lower, 199 to 200 °C
- CC1(C)Cc2cccc(CCN3CCN(c4nsc5ccccc45)CC3)c2NC1=O — lower, 95 °C
- O=C(O)N1C=CC=NC=C1 — higher, 238 to 240 °C
- O=C(CC(F)(F)F)N[C@H]1CC[C@H](CCN2CCC(c3cccc4c3CCO4)CC2)CC1 — lower, 197 °C
- N#Cc1cnn2c(C(F)(F)F)cc(-c3ccccn3)nc12 — higher, 208 °C
- COCOCc1nc(-c2ccccc2)oc1CCc1ccc(O)cc1 — lower, 102 to 103 °C
- Cc1nc(OCCCC2CO2)cc(-c2ccc(F)cc2)n1 (configuration not stated) — lower, 63 to 64 °C
- CN(C)S(=O)(=O)c1ccc(NC(=O)C2(C)CC2)cc1C(F)(F)F — lower, 153 to 156 °C
- O=C(O)CCCCCN(C(=O)c1ccc(Cl)cc1Cl)c1ccccc1-c1ccccc1 — lower, 112 to 113 °C
- CC(=O)NC1CCC(=O)N2CCCC(C(=O)NC(CC(=O)OC(C)(C)C)C(=O)COC(=O)c3c(Cl)cccc3Cl)N2C1=O (configuration not stated) — lower, 80 to 125 °C
- Cc1cccc(OCCCN2CCC(C(O)(c3ccc(F)cc3)c3ccc(F)cc3)CC2)c1 — lower, 112 to 114 °C
- CC(C)(C)c1cc(CCc2ccccc2NC(=O)NCCN2CCOCC2)cc(C(C)(C)C)c1O — lower, 166 to 167 °C
- N#CCC(=O)Nc1c([N+](=O)[O-])cnn1-c1c(Cl)cc(C(F)(F)F)cc1Cl — higher, 221 to 223 °C
- COC(=O)N1CCc2ccccc2CC1 — lower, 53 to 54 °C
- CC(C)c1nc(C(C)C)c(/C=C/C=O)c(-c2ccc(F)cc2)c1C=CC=O — lower, 122 to 123 °C
- Cc1ccc(C#CCOCCn2cnc3c(N)nc4ccccc4c32)cc1C — higher, 214 to 216 °C
- O=C(O)Cc1ccc(OCCNC(=O)C2Cc3ccccc3N2S(=O)(=O)c2ccc(-c3ccc(F)cc3)cc2)cc1 (configuration not stated) — lower, 81 °C
- CC(C)(C)c1ccc2c(c1)c(Sc1ccccc1)c(CC(=O)O)n2Cc1ccc(Cl)cc1 — lower, 148 to 150 °C
- O=[N+]([O-])C=C1SCCCN1S(=O)(=O)CCCO — lower, 80 to 83 °C
- CC(CO)Cn1cnc2c(N)nc3ccccc3c21 (configuration not stated) — higher, 258 to 261 °C
- CC(SC(=O)c1ccccc1)C(=O)NC(Cc1ccccc1)C(=O)O (configuration not stated) — lower, 173 to 175 °C
- C=CCOc1noc2ccc(N3C(=O)C4=C(CCCC4)C3=O)cc12 — lower, 88 to 89 °C
- CON=C(C(=O)O)C1(CCl)OCCO1 — lower, 80 to 81 °C
- CC(=O)OC1CCCCC1n1c(Br)nc2cc(Cl)c(Cl)cc21 (configuration not stated) — lower, 167 to 169 °C
- CC(C)NC(Nc1cc(C(F)(F)F)cc(C(F)(F)F)c1)=C(C#N)S(=O)(=O)c1ccc(Cl)cc1 — lower, 197 to 198 °C
- COc1cccc(-c2nccc3[nH]c(=O)c(-c4noc(C)n4)cc23)c1 — higher, 281 to 282 °C
- CCCCCCCCCCc1cc(CO)on1 — lower, 55 to 56 °C
- CCOc1cc2c(O)cc(C)nc2nc1C — higher, 281 to 284 °C
- CN(N)c1nc2ccccc2s1 — lower, 137 to 139 °C
- O=C(O)c1sc(C(c2ccc(Cl)cc2)c2c(Cl)cc(-n3ncc(=O)[nH]c3=O)cc2Cl)nc1-c1ccccc1 (configuration not stated) — higher, 206 °C
- CC(c1oc2ccccc2c(=O)c1-c1cccc(F)c1)n1nc(-c2ccc(S(C)(=O)=O)cc2)c2c(N)ncnc21 (configuration not stated) — higher, 259 to 262 °C
- O=c1[nH]sc2c1CCC2 — lower, 177 to 179 °C
- Clc1ccc2oc(Cl)nc2c1 — lower, 46 to 48 °C
- Cc1nc(N2CCN(CC(C)C)C2=O)sc1C(=O)NCc1cnn(C)c1 — lower, 155 to 158 °C
- Cc1ccc(S(=O)(=O)N2CCCC2c2ccc(Cl)c(C)c2)cc1 (racemic) — lower, 103 °C
- CON(C)C(=O)Nc1ccc(OCCc2ccc(C(C)C)cc2)cc1 — lower, 81 to 82 °C
- C/C(=C\c1ccc(C#N)cc1)c1ccc2c(c1)C(C)(C)C=CC2(C)C — lower, 140 to 142 °C
- Cc1nc2c(c(Cl)c1C(=O)NC(=N)N)CCCCC2 — higher, 210 to 212 °C
- CCOC(=O)NC1CCCCn2c1nc(-c1ccncn1)cc2=O (configuration not stated) — lower, 168 to 170 °C
- CC(C)n1cc(-c2nc(C#N)c(N)nc2-c2ccccc2)ccc1=O — lower, 204 °C
- COc1cc(CSC2=NCCS2)nc(N)n1 — lower, 122 to 124 °C
- CS(=O)(=O)c1ccc(C(=O)c2cnoc2C2CC2)c(C(F)(F)F)c1S(C)(=O)=O — lower, 191 to 193 °C
- CCOC(=O)c1c(Cl)c(Cl)c(Cl)c(Cl)c1C#N — lower, 74 to 75 °C
- CON1C=C(C)N=C(NC(=O)NS(=O)(=O)c2ccccc2C=CC(F)(F)F)N1 — lower, 159 to 160 °C
- CC1CCN(C(=O)[C@H](CCCSc2ccccn2)NS(=O)(=O)c2ccc3ccccc3c2)CC1 — lower, 131 to 132 °C
- CCCc1ccc(S(=O)(=O)NCc2ccccn2)cc1 — lower, 109 °C
- N#Cc1cccc(C(=O)c2ccc(S)cc2)c1 — lower, 126 °C
- Cc1ccc2[nH]c(=O)n(C(C)(C)C(=O)O)c(=O)c2c1 — higher, 268 to 271 °C
- COc1ccc(C2(c3ccc(N(C)C)cc3N(C)C)OC(=O)c3cc(N(C)C)ccc32)cc1 (configuration not stated) — lower, 90 to 94 °C
- Cc1c(Cl)nc2nc(SCc3ccccc3)nn2c1Cl — lower, 121 to 123 °C
- CN1CCN(c2cc3c(cc2F)c(=O)c(C(=O)O)cn3CCF)CC1 — higher, 256 to 258 °C
- COc1ccc(-c2coc3c(C)c(OCC4CO4)ccc3c2=O)cc1OC (configuration not stated) — higher, 214 °C
- COc1cc2c(cc1OC)CN(CCCCNC(=O)c1cc(I)ccc1OCCF)CC2 — lower, 121 to 123 °C
- CC(C)CN1c2ccccc2C(C)(C)C12C=Nc1cc(-c3ccc(N4CCCC4)cc3)c3ccccc3c1O2 (configuration not stated) — higher, 242 to 245 °C
- O=C(O)CS(=O)CCCCCNS(=O)(=O)c1ccc(Cl)cc1 (configuration not stated) — lower, 91 to 92 °C
- Cc1ccccc1CCC(=O)NCc1ncc(C(F)(F)F)cc1Cl — lower, 152 to 153 °C
- CCN(C)c1nc2sc3c(NCCN4CCOCC4)ncnc3c2c2c1CCC(C)(C)C2 — lower, 144 °C
- CC(C)(C)CC(C)(C)c1ccc(OS(=O)(=O)c2ccc(C(C)(C)C)cc2)cc1 — lower, 68 to 71 °C
- NS(=O)(=O)c1cccnc1OC1CCCC1 — lower, 134 to 135 °C
- CC(=O)c1ccc(S)cc1OCC(=O)O — lower, 149 to 150 °C
- C[N+]([O-])=C(Cn1ccnc1)c1ccco1 — lower, 120 to 123 °C
- COc1cccc(/C=C/c2ccc(C(=O)O)cc2)c1 — not separable, 200 to 205 °C
